Literature values as cited in US20120046368A1, “METHOD FOR PURIFYING 3,4-DIHYDROXYPHENYLGLYCOL (DHPG) FROM PLANT PRODUCTS” (CONSEJO SUPERIOR DE INVESTIGACIONES CIENTIFICAS, priority 2008, published 2012).

Columns and labels:
[1] = fold greater than ascorbic acid or HT
[2] = compared with HT

OCC(O)c1ccc(O)c(O)c1 (centres unmarked) [DHPG, 3,4-dihydroxyphenylglycol]
antioxidant efficacy in water relative to ascorbic acid or HT [1]: 2-3 times | antioxidant efficacy in a lipid medium relative to HT [2]: twice that of HT
